Source: ChEMBL document CHEMBL1144741, “Review of cytotoxic cephalostatins and ritterazines: isolation and synthesis” (2008)
Each block holds one compound with its values, some of them ahead of it.

Experiments:
Type in all cases: functional
SF-295 = experiment: Antitumor activity against human SF295 cells
P388 = experiment: Antitumor activity against mouse P388 cells; conditions: for EC50: read-out: ED50 (the source's name)
[1] = Antitumor activity against human […] cells
HOP-62 = experiment: Antitumor activity against human HOP62 cells
U-251 = experiment: Antitumor activity against human U251 cells
CCRF-CEM = experiment: Antitumor activity against human CCRF-CEM cells
HL-60 = experiment: Antitumor activity against human HL60 cells
DMS-273 = experiment: Antitumor activity against human DMS273 cells
RXF 393 = experiment: Antitumor activity against human RXF393 cells

GI50 (P388): < 0.1 nM
GI50 (U-251): < 0.1 nM
GI50 (CCRF-CEM): < 0.1 nM
GI50 (HL-60): < 0.1 nM
Compound: C[C@@H]1[C@]2(O[C@H]3C=C4[C@@H]5CC[C@H]6Cc7nc8c(nc7C[C@]6(C)[C@H]5C[C@@H](O)[C@]4(C)[C@]31O)C[C@@H]1CC[C@H]3C4=C[C@@H]5O[C@]6(CC[C@](C)(O)CO6)C[C@]5(O)[C@@]4(C)[C@H](O)C[C@@H]3[C@@]1(C)C8)O[C@](C)(CO)C[C@H]2O [CEPHALOSTATIN 7]
GI50 (SF-295): < 0.1 nM
GI50 [1]: < 0.1 nM
GI50 (HOP-62): < 0.1 nM
GI50 (DMS-273): < 0.1 nM
GI50 (RXF 393): < 0.1 nM

GI50 (P388): < 0.1 nM
GI50 (U-251): < 0.1 nM
GI50 (CCRF-CEM): < 0.1 nM
GI50 (HL-60): < 0.1 nM
Compound: C[C@@H]1[C@H]2CC=C3[C@@H]4CC[C@H]5Cc6nc7c(nc6C[C@]5(C)[C@H]4CC(=O)[C@@]32COC1(O)[C@H](O)CC(C)(C)O)C[C@@H]1CC[C@H]2C3=C[C@@H]4O[C@]5(O[C@](C)(CO)C[C@H]5O)[C@@H](C)[C@]4(O)[C@@]3(C)[C@H](O)C[C@@H]2[C@@]1(C)C7 (stereo not given in full) [CEPHALOSTATIN 9]
GI50 (SF-295): < 0.1 nM
GI50 [1]: < 0.1 nM
GI50 (HOP-62): < 0.1 nM
GI50 (DMS-273): < 0.1 nM
GI50 (RXF 393): < 0.1 nM

GI50 (P388): < 0.1 nM
GI50 (U-251): < 0.1 nM
GI50 (CCRF-CEM): < 0.1 nM
GI50 (HL-60): < 0.1 nM
Compound: C[C@@H]1C[C@]2(O[C@H]3C=C4[C@@H]5CC[C@H]6Cc7nc8c(nc7C[C@]6(C)[C@H]5C[C@@H](O)[C@]4(CO)[C@H]3[C@@H]2C)C[C@@H]2CC[C@H]3C4=C[C@@H]5O[C@]6(O[C@](C)(CO)C[C@H]6O)[C@@H](C)[C@]5(O)[C@@]4(C)[C@H](O)C[C@@H]3[C@@]2(C)C8)OC1(C)C [CEPHALOSTATIN 8]
GI50 (SF-295): < 0.1 nM
GI50 [1]: < 0.1 nM
GI50 (HOP-62): < 0.1 nM
GI50 (DMS-273): < 0.1 nM
GI50 (RXF 393): < 0.1 nM

EC50 (P388): 3.2 nM
Compound: CO[C@H]1c2nc3c(nc2C[C@@H]2CC[C@H]4C5=C[C@@H]6O[C@]7(O[C@](C)(CO)C[C@H]7O)[C@@H](C)[C@]6(O)[C@@]5(C)[C@H](O)C[C@@H]4[C@]21C)C[C@@]1(C)[C@@H](CC[C@H]2C4=CC[C@@H]5[C@H](C)[C@@]6(OC[C@]45C(=O)C[C@@]21O)OC(C)(C)C[C@H]6O)C3 [CEPHALOSTATIN 10]

EC50 (P388): 4.6 nM
Compound: CO[C@H]1c2nc3c(nc2C[C@@H]2CC[C@H]4C5=C[C@@H]6O[C@]7(O[C@](C)(CO)C[C@H]7O)[C@@H](C)[C@]6(O)[C@@]5(C)[C@H](O)C[C@@H]4[C@]21C)C[C@@]1(C)[C@@H](CC[C@H]2C4=CC[C@@H]5[C@H](C)[C@@]6(OC[C@]45C(=O)C[C@@H]21)OC(C)(C)C[C@H]6O)C3 [CEPHALOSTATIN 18]

EC50 (P388): 4.4 nM
Compound: C[C@@H]1[C@H]2CC=C3[C@H]4CC[C@H]5Cc6nc7c(nc6C[C@]5(C)[C@@]4(O)CC(=O)[C@@]32CO[C@]12OC(C)(C)C[C@H]2O)C[C@@H]1CC[C@H]2C3=C[C@@H]4O[C@]5(O[C@](C)(CO)C[C@H]5O)[C@@H](C)[C@]4(O)[C@@]3(C)[C@H](O)C[C@@H]2[C@@]1(C)C7 [CEPHALOSTATIN 17]

EC50 (P388): 47.9 nM
Compound: C[C@@H]1[C@]2(O[C@H]3C=C4[C@@H]5CC[C@H]6Cc7nc8c(nc7C[C@]6(C)[C@H]5C[C@@H](O)[C@]4(C)[C@]31O)C[C@@H]1CC[C@H]3C4=C[C@@H]5O[C@]6(O[C@](C)(CO)C[C@H]6O)[C@@H](C)[C@]5(O)[C@@]4(C)[C@H](O)C[C@@H]3[C@@]1(C)[C@H]8O)O[C@](C)(CO)C[C@H]2O [CEPHALOSTATIN 13]

EC50 (P388): 7.9 nM
Compound: CO[C@H]1c2nc3c(nc2C[C@@H]2CC[C@H]4C5=CC[C@@H]6[C@H](C)[C@@]7(OC[C@]56C(=O)C[C@@H]4[C@]21C)OC(C)(C)C[C@H]7O)C[C@@]1(C)[C@@H](CC[C@H]2C4=C[C@@H]5O[C@]6(O[C@](C)(CO)C[C@H]6O)[C@@H](C)[C@]5(O)[C@@]4(C)[C@H](O)C[C@@H]21)C3 [CEPHALOSTATIN 19]

Continued, compound first:

Compound: C[C@H]1[C@H]2[C@H](C[C@@H]3[C@@H]4CC[C@H]5Cc6nc7c(nc6C[C@]5(C)[C@H]4C[C@@H](O)[C@]23C)C[C@@H]2CC[C@@H]3[C@@H](CC(=O)[C@]34C[C@@H]3O[C@]5(CCC(C)(C)O5)[C@@H](C)[C@@H]3[C@]4(C)O)[C@@]2(C)C7)O[C@@]12CCC(C)(C)O2 [RITTERAZINE Q]
EC50 (P388): 657 nM

Compound: C[C@H]1[C@H]2[C@H](C[C@@H]3[C@@H]4CC[C@H]5Cc6nc7c(nc6C[C@]5(C)[C@@H]4C[C@@H](O)[C@]23C)C[C@@H]2CC[C@H]3[C@H]4C[C@@H]5O[C@@]6(CCC(C)(C)O6)[C@@H](C)[C@@H]5[C@@]4(C)[C@H](O)C[C@@H]3[C@@]2(C)C7)O[C@@]12CCC(C)(C)O2 [RITTERAZINE R]
EC50 (P388): 2460 nM

Compound: C[C@H]1[C@H]2[C@H](C[C@]3(C(=O)C[C@H]4[C@H]3CC[C@H]3Cc5nc6c(nc5C[C@@]34C)C[C@@H]3CC[C@@H]4[C@@H](CC(=O)[C@]5(C)[C@@H]7[C@H](C[C@]45O)O[C@]4(CC[C@](C)(O)CO4)[C@H]7C)[C@@]3(C)C6)[C@@]2(C)O)O[C@@]12CCC(C)(C)O2 [RITTERAZINE U]
EC50 (P388): 2340 nM

Compound: C[C@H]1[C@H]2[C@H](C=C3[C@@H]4CC[C@H]5Cc6nc7c(nc6C[C@]5(C)[C@@H]4C[C@@H](O)[C@@]32C)C[C@@H]2CC[C@H]3[C@H]4C[C@@H]5O[C@@]6(CCC(C)(C)O6)[C@@H](C)[C@@H]5[C@@]4(C)[C@H](O)C[C@@H]3[C@@]2(C)C7)O[C@]12CC[C@](C)(O)CO2 [RITTERAZINE Y]
EC50 (P388): 4 nM

Compound: C[C@H]1[C@H]2[C@H](C=C3[C@@H]4CC[C@H]5Cc6nc7c(nc6C[C@]5(C)[C@@H]4C[C@@H](O)[C@@]32C)C[C@@H]2CC[C@@H]3[C@H](CC(=O)[C@]34C[C@@H]3O[C@]5(CCC(C)(C)O5)[C@@H](C)[C@@H]3[C@]4(C)O)[C@@]2(C)C7)O[C@]12C[C@](C)(CO)CO2 [RITTERAZINE X]
EC50 (P388): 3400 nM

Compound: C[C@H]1[C@H]2[C@H](C[C@@H]3[C@@H]4CC[C@H]5Cc6nc7c(nc6C[C@]5(C)[C@H]4C[C@@H](O)[C@]23C)C[C@@H]2CC[C@@H]3[C@@H](CC(=O)[C@]34C[C@@H]3O[C@@]5(CCC(C)(C)O5)[C@@H](C)[C@@H]3[C@]4(C)O)[C@@]2(C)C7)O[C@@]12CCC(C)(C)O2 [RITTERAZINE P]
EC50 (P388): 819 nM

Compound: C[C@@H]1[C@@]2(CC[C@](C)(O)CO2)O[C@H]2C=C3[C@@H]4[C@@H](O)C[C@H]5Cc6nc7c(nc6C[C@]5(C)[C@H]4C[C@@H](O)[C@]3(C)[C@]21O)C[C@@H]1CC[C@H]2C3=C[C@@H]4O[C@]5(CCC(C)(C)O5)C[C@@H]4[C@@]3(C)[C@H](O)C[C@@H]2[C@@]1(C)C7 [RITTERAZINE G]
EC50 (P388): 0.81 nM

Compound: C[C@@H]1[C@@]2(CC[C@](C)(O)CO2)O[C@H]2C=C3[C@@H]4[C@@H](O)C[C@H]5Cc6nc7c(nc6C[C@]5(C)[C@H]4C[C@@H](O)[C@]3(C)[C@]21O)C[C@@H]1CC[C@H]2[C@H]3C[C@@H]4O[C@@]5(CCC(C)(C)O5)C[C@@H]4[C@@]3(C)C(=O)C[C@@H]2[C@@]1(C)C7 [RITTERAZINE H]
EC50 (P388): 17.8 nM
